Experimental data reported in patent publication US11186577B2, “Vasopressin receptor antagonists and products and methods related thereto” (BlackThorn Therapeutics, Inc., priority 2017, dated 2021).
Read-outs that look alike come from different tables or passages of the source. One block for each compound: values may come before it.

Key:
[1] = target: human Arginine Vasopressin Receptor V2 (AVPR2) (Homo sapiens (Human), UniProt P30518); test: Vasopressin V2 receptor antagonist assay (cAMP TR-FRET, 1321N1 cells); format: cell-based
Description: The purpose of the assay was to determine the inhibitory effect of synthesized compounds on the Vasopressin receptor 2. […] Arginine Vasopressin (AVP) evokes an increase in intracellular cAMP in these cells which is measured in a TR-FRET assay using a Europium cAMP tracer and ULight labelled antibody reagents contained in a LANCE Ultra cAMP kit (Perkin Elmer #TRF0263). […] Test compounds were assessed for their ability to affect the magnitude of the response to AVP, with antagonists showing a concentration-dependent decrease in the AVP-mediated reduction in TR-FRET signal.
cAMPZen V2 assay ready cells were thawed at 37° C. and resuspended directly from frozen in 9 ml growth medium consisting of DMEM supplemented with 10% v/v fetal bovine serum, 1× non-essential amino acids, and 1 mM sodium pyruvate. Cells were spun at 1000 rpm for 3 minutes and the supernatant was carefully removed and discarded. The pellet was resuspended in 5 ml stimulation buffer and the cell density determined using the Vi-Cell automated cell counter. The cell suspension was diluted to a 0.2×10^6/ml suspension ready for plating. […] Stimulation buffer consisted of HBSS (+Ca/+Mg) supplemented with 5 mM HEPES, 0.1% BSA stabiliser and 0.5 mM IBMX.
At the start of each assay day the potency of AVP was assessed and an EC80 concentration determined for subsequent compound profiling. Assays were performed by first an addition of 2.5 μl of control or test compound at 4× final concentration in stimulation buffer followed by 2.5 μl of AVP at 4× final concentration in stimulation buffer. After a 1 hour reaction, detection reagents were added by first an addition of 5 μl EU-cAMP tracer, followed by 5 μl ULight-anti-cAMP both diluted as per the manufacturer's instructions. […] For compound profiling, test compounds were dispensed by the Labcyte Echo (10-point curve, 1:3 dilutions) in a target 0.1 μl volume then diluted 750-fold in stimulation buffer containing 3% DMSO prior to addition to the cells. At the end of the incubation period, 2.5 μl of AVP in stimulation buffer was added at the previously determined EC80 concentration.

[2] = target: human Oxytocin Receptor (hOTR) (Homo sapiens (Human), UniProt P30559); test: Oxytocin receptor antagonist assay (oxytocin-evoked calcium, FLIPR, CHEM-1-hOTR cells); format: cell-based; details: read-out: OT IC50
Outline: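 Oxytocin-evoked intracellular calcium rise measured by FLIPR^TETRA fluorescence (Calcium-6 dye, 3 min read) in CHEM-1-hOTR cells. Test compounds, 10-point 1:3 dilutions, were added 15 min at 37 °C before an EC80 oxytocin challenge (EC80 set each assay day); buffer HBSS with 20 mM HEPES.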

human Oxytocin Receptor (hOTR), sequence (P30559 whole entry): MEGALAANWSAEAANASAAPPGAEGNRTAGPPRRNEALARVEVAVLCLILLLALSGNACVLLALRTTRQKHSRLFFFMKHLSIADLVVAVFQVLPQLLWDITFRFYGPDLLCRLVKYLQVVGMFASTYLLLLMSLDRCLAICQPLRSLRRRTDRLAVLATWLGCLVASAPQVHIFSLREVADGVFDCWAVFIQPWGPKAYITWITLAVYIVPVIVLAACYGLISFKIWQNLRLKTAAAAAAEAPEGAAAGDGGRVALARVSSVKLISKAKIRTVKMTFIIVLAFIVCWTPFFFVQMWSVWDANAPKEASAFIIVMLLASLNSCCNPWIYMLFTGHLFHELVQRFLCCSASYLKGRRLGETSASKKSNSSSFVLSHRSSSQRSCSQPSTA
human Arginine Vasopressin Receptor V2 (AVPR2), sequence (P30518 whole entry): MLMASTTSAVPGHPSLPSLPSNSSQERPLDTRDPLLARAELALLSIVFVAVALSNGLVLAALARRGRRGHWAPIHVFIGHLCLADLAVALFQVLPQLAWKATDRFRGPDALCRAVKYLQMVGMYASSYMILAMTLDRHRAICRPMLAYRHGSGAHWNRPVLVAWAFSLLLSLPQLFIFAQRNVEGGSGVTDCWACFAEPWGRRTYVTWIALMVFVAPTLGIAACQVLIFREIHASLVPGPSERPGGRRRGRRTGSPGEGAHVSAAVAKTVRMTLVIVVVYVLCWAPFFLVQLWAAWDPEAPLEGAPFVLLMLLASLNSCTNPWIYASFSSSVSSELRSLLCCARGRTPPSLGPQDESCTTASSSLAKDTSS

Compound: CC(=O)N1Cc2cc(Cl)ccc2-n2c(nnc2C2CC3(C2)CN(c2ccc(F)cn2)C3)C1 [compound 64]
- IC50 [1]: 100 to 500 nM
- IC50 [2]: > 1000 nM

Compound: CC1c2nnc(C3CC4(C3)CN(c3ncccn3)C4)n2-c2ccc(Cl)cc2CN1C(=O)OC1CC1 (centres unmarked) [compound 171]
- IC50 [1]: > 1000 nM
- IC50 [2]: > 1000 nM

Compound: CC1c2nnc(C3CC4(C3)CN(c3ncccn3)C4)n2-c2ccc(Cl)cc2CN1C(=O)OC1CC1 (single isomer, unassigned) [Cpd 171B]
- IC50 [1]: > 1000 nM
- IC50 [2]: > 1000 nM

Compound: CC1c2nnc(C3CC4(C3)CN(c3ccc(F)cn3)C4)n2-c2ccc(Cl)cc2CN1C(=O)OC1CC1 (single isomer, unassigned) [Cpd 191A]
- IC50 [1]: > 1000 nM
- IC50 [2]: 100 to 500 nM

Compound: COC(=O)N1Cc2cc(Cl)ccc2-n2c(C3CC4(C3)CN(c3ncc(F)cn3)C4)nnc2C1C (centres unmarked) [compound 170]
- IC50 [1]: > 1000 nM
- IC50 [2]: > 1000 nM

Compound: CC1c2nnc(C3CC4(C3)CN(c3ccc(F)cn3)C4)n2-c2ccc(Cl)cc2CN1C(=O)C(C)(C)F (single isomer, unassigned) [Cpd 178A]
- IC50 [1]: 100 to 500 nM
- IC50 [2]: 100 to 500 nM

Compound: CC(C)N1Cc2cc(Cl)ccc2-n2c(nnc2C2CC3(C2)CN(c2ccc(F)cn2)C3)C1 [compound 50]
- IC50 [1]: 100 to 500 nM
- IC50 [2]: > 1000 nM

Compound: CCOC(=O)N1Cc2cc(Cl)ccc2-n2c(C3CC4(C3)CN(c3ncccn3)C4)nnc2C1C (centres unmarked) [compound 168]
- IC50 [1]: > 1000 nM
- IC50 [2]: > 1000 nM

Compound: CCOC(=O)N1Cc2cc(Cl)ccc2-n2c(C3CC4(C3)CN(c3ccc(F)cn3)C4)nnc2C1C (single isomer, unassigned) [Cpd 169A]
- IC50 [1]: > 1000 nM
- IC50 [2]: 100 to 500 nM

Compound: COCCN1Cc2cc(Cl)ccc2-n2c(nnc2C2CC3(C2)CN(c2ccccn2)C3)C1 [compound 39, 8-chloro-5-(2-methoxyethyl)-1-(2-(pyridin-2-yl)-2-azaspiro[3.3]heptan-6-yl)-5,6-dihydro-4H-benzo[f][1,2,4]triazolo[4,3-a][1,4]diazepine]
- IC50 [1]: > 1000 nM
- IC50 [2]: > 1000 nM

Compound: COC(=O)N1Cc2cc(Cl)ccc2-n2c(C3CC4(C3)CN(c3cnccn3)C4)nnc2C1C (centres unmarked) [compound 165]
- IC50 [1]: > 1000 nM
- IC50 [2]: 500 to 1000 nM

Compound: CC1c2nnc(C3CC4(C3)CN(c3ncc(F)cn3)C4)n2-c2ccc(Cl)cc2CN1C(=O)OC(CF)CF (centres unmarked) [compound 194]
- IC50 [1]: > 1000 nM
- IC50 [2]: > 1000 nM

Compound: CC(C)OC(=O)N1Cc2cc(Cl)ccc2-n2c(C3CC4(C3)CN(c3ccc(F)cn3)C4)nnc2C1C (single isomer, unassigned) [Cpd 163A]
- IC50 [1]: > 1000 nM
- IC50 [2]: 100 to 500 nM

Compound: CCOC(=O)N1Cc2cc(Cl)ccc2-n2c(C3CC4(C3)CN(c3ncccn3)C4)nnc2C1C (single isomer, unassigned) [Cpd 168A]
- IC50 [1]: > 1000 nM
- IC50 [2]: 500 to 1000 nM

Compound: COC(=O)N1Cc2cc(Cl)ccc2-n2c(C3CC4(C3)CN(c3ncccn3)C4)nnc2C1C (single isomer, unassigned) [Cpd 166A]
- IC50 [1]: > 1000 nM
- IC50 [2]: > 1000 nM

- IC50 ([2]; in vitro antagonist assay, reference compounds): > 1000 nM
Compound: CN1Cc2cc(Cl)ccc2-n2c(nnc2[C@H]2CC[C@H](Oc3ccccn3)CC2)C1 [balovaptan, reference compound]

Compound: COC(=O)N1Cc2cc(Cl)ccc2-n2c(C3CC4(C3)CN(c3ncc(F)cn3)C4)nnc2C1C (single isomer, unassigned) [Cpd 170A]
- IC50 [1]: 500 to 1000 nM
- IC50 [2]: > 1000 nM

Compound: Clc1ccc2c(c1)CN(C1COC1)Cc1nnc(C3CC4(C3)CN(c3ccccn3)C4)n1-2 [compound 57, 8-chloro-5-(oxetan-3-yl)-1-(2-(pyridin-2-yl)-2-azaspiro[3.3]heptan-6-yl)-5,6-dihydro-4H-benzo[f][1,2,4]triazolo[4,3-a][1,4]diazepine]
- IC50 [1]: > 1000 nM
- IC50 [2]: > 1000 nM

Compound: CCOC(=O)N1Cc2cc(Cl)ccc2-n2c(C3CC4(C3)CN(c3ccc(F)cn3)C4)nnc2C1C (centres unmarked) [compound 169]
- IC50 [1]: > 1000 nM
- IC50 [2]: 100 to 500 nM

Compound: CC(C)OC(=O)N1Cc2cc(Cl)ccc2-n2c(C3CC4(C3)CN(c3ncc(F)cn3)C4)nnc2C1C (single isomer, unassigned) [Cpd 201A]
- IC50 [1]: > 1000 nM
